Source: patent US8414989B2, “Cyclodextrin compositions, articles, and methods” (Cellresin Technologies, LLC, priority 2011, dated 2013)

How the values were obtained:
[1] = Control Example A: dissociation of 1-MCP from supplied 1-MCP/c/α-CD powder as a function of added water; format: physicochemical; settings: for Headspace concentration of 1-MCP: 0.1 g 1-MCP/c/α-CD powder, 250 mL bottle, shaken 1 hour, about 20 C
Procedure: A sample of 1-MCP/c/α-CD powder was obtained (AgroFresh of Spring House, Pa.). According to the supplier's specification sheet, 1-MCP was 4.7 wt % of α-CD or 88.7 wt % 1-MCP complex based on a theoretical 1:1 molar ratio of 1-MCP to α-CD; this corresponds to a resulting headspace concentration of 8,600 ppm. A series of tests were conducted to measure the dissociation of 1-MCP from the supplied 1-MCP/c/α-CD as a function of added water. First, 0.1 g aliquots of the supplied 1-MCP/c/α-CD powder were added to each of 5, 250 mL bottles, which were then capped with TEFLON® faced septa. Varying amounts of water were added to the bottles by syringe, and then the bottles were mechanically shaken for one hour, followed by headspace measurement for 1-MCP according to the procedure of Example 3. The amounts of water added per 0.1 g of the supplied 1-MCP/c/α-CD complex, and the resulting headspace measurements after 1 hour at about 20 C, are shown in Table 6.
A polynomial regression was used to calculate the dissociation at 100% RH in the headspace for the five samples of Table 6 (i.e., 4.3 milligrams water per 250 mL volume, see Example 8 for source and calculation of this information). The calculated amount of dissociated 1-MCP at 100% RH was 18 wt-%.

[2] = Example 6: 1-MCP headspace release from PSA labels; format: physicochemical; settings: 2.5 cm x 2.5 cm PSA label, 250 mL bottle; for Headspace concentration of 1-MCP, average: 50 μL water
Procedure: A 100 mL quartz beaker was charged with 54 g of 2-isooctyl acrylate, 6 g of acrylic acid, and 0.60 g of 1-hydroxycyclohexyl phenyl ketone (IRGACURE® 184, Ciba Specialty Chemicals Corp. of Tarrytown, N.Y.). The beaker was equipped with a mechanical stirrer, and the contents were mixed for about 5 minutes while sparging with dry helium. Then the beaker was irradiated with a medium pressure mercury arc lamp operating at 79 watts per cm situated about 15 cm from the side of the beaker. The light was turned off when the contents of the flask were of a honey-like consistency, about 1.5 minutes. The beaker was further charged with 3.23 g of 1-MCP/c/α-CD, 0.89 g of IRGACURE® 184, 5.8 g of isooctyl acrylate, and 0.72 g of acrylic acid. The beaker contents were mixed until uniformly dispersed, about 5 minutes.
About 4 mL of the mixture in the bottle was removed with a metered dropper and dispensed on 30.5 cm by 30.5 cm white paper labelstock, and drawn down using a metering rod (Meyer coating rod #30) having a delivered coating thickness of 25 microns. Then a 21.5 cm by 28 cm silicone coated polyester (PET) film sheet (120 μm thick (obtained from the 3M Company of St. Paul, Minn.) was placed over the coated labelstock, taking care not to entrain air bubbles. The coated and covered labelstock was cut into 10 cm by 20 cm rectangles using a paper cutter. The cut samples were passed by hand about 15 cm beneath a medium pressure mercury arc lamp operating at 79 watts per cm; multiple hand passes beneath the UV light or about 30 seconds under the lamp was used to cure the adhesive. The cured coated labelstock sheets were allowed to sit PET side up on a laboratory bench overnight.
A paper cutter was used to cut six replicate 2.5 cm by 2.5 cm squares from the sheets. Because the UV cured coating composition is a pressure sensitive adhesive, or PSA, the 2.5 cm by 2.5 cm squares are termed “PSA labels.” Each PSA label, with the silicone coated PET still in place, was placed in a 250 mL serum bottle. Each bottle was sealed with a TEFLON® faced silicone septum. The headspace concentration of 1-MCP was measured after 1 hour following introduction of the PSA label into a bottle, using the technique of Example 3 except that 250 μL of gas was removed from the sample bottle for the analysis. 1-MCP was below the quantification limit of 0.01 ppm.
Then 50 μL of deionized water was injected into each bottle. […] The sealed bottle headspace was analyzed at 10 minutes, 30 minutes, and 60 minutes, using the technique of Example 3. A final headspace sample was analyzed 16 hours after the injection of water. The data illustrate that 1-MCP was released from a PSA label into the headspace when exposed to water vapor (humidity) and that its concentration increases over time.

[3] = Example 9: 1-MCP headspace release from UV-cured ink coated on PET film; format: physicochemical; settings: 4 wt-% 1-MCP/c/α-CD UV ink on PET, 200 μL water
Procedure: ImTech UVBLK Series 912 cartridges were obtained from ImTech Inc. of Corvallis, Oreg. About 40 g of black ink was removed from the cartridge in which the ink was supplied. The ink was dried overnight in a closed container with 3 A molecular sieves to remove residual water contained in the ink. Then 17.5 g of the dried ink was transferred to a 70 mL roller mill jar filled with 50 g of 3 mm glass beads to which 0.875 g of 1-MCP/c/α-CD was added to the UV ink. The jar was sealed and rotated on a roller mill at 140 rpm for four hours. At the end of four hours of rolling to disperse the 1-MCP/c/α-CD, an additional 4.375 g of dry UV ink was added making a 4 wt-% 1-MCP/c/α-CD containing ink. Then the ink was decanted from the glass beads.
A rubber ink roller was used to coat a discontinuous, thin (nominally 3 μm), but uniform UV ink coating onto a 10 cm by 20 cm section of PET film (120 microns thick, obtained from the 3M Company of St. Paul, Minn.) in the manner described in Example 2. UV ink coated rectangles were passed by hand about 10 cm beneath a medium pressure mercury arc lamp operating at 79 watts per cm for 1.5 seconds exposure to the lamp. The cured sample was allowed to sit on a laboratory bench overnight ink side down.
A paper cutter was used to cut two samples, 20 cm^2 and 81 cm^2, from the cured ink coated PET film sheet. The samples were individually placed in 250 mL serum bottles. The bottles were then sealed with TEFLON® faced silicone septa. Then 200 μL of deionized water was injected into the bottle. […] After the injection of water into the bottle, 1-MCP was measured in the headspace using the analytical technique employed in Example 3.

[4] = cited from earlier work

With `CC1=CC1` [1-MCP, 1-methylcyclopropene] the “Headspace concentration of 1-MCP” value ([1]; 0.25 g H2O) was 3,050 ppm (v/v), the “Headspace concentration of 1-MCP” value ([1]; 0.5 g H2O) was 4,750 ppm (v/v) and the “Headspace concentration of 1-MCP” value ([1]; 1.0 g H2O) was 6,850 ppm (v/v). For the same molecule, the “Headspace concentration of 1-MCP” value ([1]; 2.0 g H2O) was 9,850 ppm (v/v), the “Headspace concentration of 1-MCP” value ([1]; 3.0 g H2O) was 10,610 ppm (v/v) and the “1-MCP dissociated from complex” value ([1]; 1.0 grams of water per 0.10 grams 1-MCP/c/α-CD) was 66%. The “calculated amount of dissociated 1-MCP at 100% RH” value ([1]; polynomial regression of the five samples of Table 6, 4.3 milligrams water per 250 mL volume) was 18 wt-%, the “resulting headspace concentration corresponding to supplier's specification” value ([1]; supplier's specification sheet 4.7 wt % 1-MCP, 0.1 g in 250 mL bottle) was 8,600 ppm and the “Headspace concentration of 1-MCP, average” value ([2]; 0.17 hours) was 0.01 ppm (v/v). The “Headspace concentration of 1-MCP, average” value ([2]; 0.5 hours) was 1.3 ppm (v/v), the “Headspace concentration of 1-MCP, average” value ([2]; 1 hour) was 3.6 ppm (v/v) and the “Headspace concentration of 1-MCP, average” value ([2]; 16 hours) was 29.7 ppm (v/v). The “Headspace concentration of 1-MCP” value ([2]; no water, 1 hour, quantification limit) was under 0.01 ppm, the “Headspace concentration of 1-MCP” value ([3]; 20 cm^2, 250 mL bottle, 0.5 hours) was <0.01 ppm (v/v) and the “Headspace concentration of 1-MCP” value ([3]; 20 cm^2, 250 mL bottle, 1 hour) was <0.01 ppm (v/v). For the same molecule, the “Headspace concentration of 1-MCP” value ([3]; 20 cm^2, 250 mL bottle, 2 hours) was 0.01 ppm (v/v), the “Headspace concentration of 1-MCP” value ([3]; 20 cm^2, 250 mL bottle, 4 hours) was 0.04 ppm (v/v) and the “Headspace concentration of 1-MCP” value ([3]; 20 cm^2, 250 mL bottle, 8 hours) was 0.05 ppm (v/v). The “Headspace concentration of 1-MCP” value ([3]; 20 cm^2, 250 mL bottle, 27 hours) was 0.09 ppm (v/v), the “Headspace concentration of 1-MCP” value ([3]; 20 cm^2, 250 mL bottle, 170 hours) was 0.76 ppm (v/v) and the “Headspace concentration of 1-MCP” value ([3]; 81 cm^2, 250 mL bottle, 0.5 hours) was <0.01 ppm (v/v). For the same molecule, the “Headspace concentration of 1-MCP” value ([3]; 81 cm^2, 250 mL bottle, 1 hour) was 0.05 ppm (v/v), the “Headspace concentration of 1-MCP” value ([3]; 81 cm^2, 250 mL bottle, 2 hours) was 0.18 ppm (v/v) and the “Headspace concentration of 1-MCP” value ([3]; 81 cm^2, 250 mL bottle, 21 hours) was 0.51 ppm (v/v). The “Headspace concentration of 1-MCP” value ([3]; 81 cm^2, 250 mL bottle, 48 hours) was 0.60 ppm (v/v), the 1-MCP remained complexed ([4]; 1-MCP/c/α-CD, end of the experiments) was about 83.4% and the “total complexed 1-MCP dissociated at the end of the experiments, average” value ([4]; 1-MCP/c/α-CD, humidity-triggered dissociation) was about 17.6%. The “complexed 1-MCP released from 1-MCP/c/α-CD” value ([4]; 100% relative humidity) was “less than 20%”.
